What was measured:
Type in all cases: cell-based
[1] = test system: CMK 6.4 cynomolgus monkey ES cells; assay: Screening of agents which promote cardiac muscle cell differentiation of monkey ES cells (α-MHC promoter-GFP, HCS); conditions: 96-well, about 1-5 μM compound/well added day 6-14, read at day 14 of culture
Experimental: As described in FIG. 1, screening of agents which promote cardiac muscle cell differentiation of monkey ES cells was performed. A vector expressing green fluorescent protein (GFP) under control of a promoter of a-MHC gene, a marker of cardiac muscle cell differentiation, was introduced into monkey ES cell line (CMK 6.4 cynomolgus monkey ES cells) and the cells were seeded on 96-well culture plates (Greiner/655090: 96 well FIA black plate) in 5.0×10^2 cells/well, and cultured for 14 days in a differentiation medium for cardiac muscle cell differentiation (200 ml IMDM (Sigma 13390) containing 50 ml bovine fetal serum (GIBCO 10099-141), 2.5 ml MEM non-essential amino acid solution (Sigma M7145), 2.5 ml penicillin-streptomycin (GIBCO 15140), 2.5 ml 200 mM L-glutamine, 2 μl 2-mercaptoethanol (Sigma M7522), 255 μl 5N NaOH 255 μl). During day 6-14 of culture, 9,600 library compounds were added into separate wells (about 1-5 μM compound/well). Then, at day 14 of culture, GFP expression was determined by using HCS (high contents screening) system (Molecular device/MetaMorph imaging system). As a result, GFP fluorescence intensity was high in the wells added with nitrovin (FIG. 2).

[2] = test system: CMK 6.4 cynomolgus monkey ES cells; assay: Effect of nitrovin for promoting cardiac muscle cell differentiation of monkey ES cells
Experimental: As described in Example 1, a vector expressing green fluorescent protein (GFP) was introduced into monkey ES cell line (CMK 6.4 cynomolgus monkey ES cells). The monkey ES cells were seeded and cultured on 6-well culture plates (Asahi Glass/5816-006: Ezview culture plate) in 4.0×10^6 cells/well. The culture medium was the same as described in Example 1. At day 6 of culture, nitrovin was added at a final concentration of 1 μM, 5 μM, or 20 μM. At day 18 of culture, fluorescence intensity of GFP and number of beating colonies of cardiac muscle cells were determined. When nitrovin was added, the fluorescence intensity and number of beating colonies increased up to about 5 times and about 10 times higher, respectively (FIGS. 3-1 and 3-2).

[3] = test system: human ES cell line (Kh−1); assay: Effect of nitrovin for promoting cardiac muscle cell differentiation of human ES cells; conditions: nitrovin 1, 5 or 20 μM added at day 6, read at day 18
Experimental: As described in Example 1, a vector expressing green fluorescent protein (GFP) was introduced into human ES cell line (Kh−1). The human ES cells were seeded and cultured on 6-well culture plates (Asahi Glass/5816-006: Ezview culture plate) in 1.2×10^6 cells/well. The culture medium was the same as described in Example 1. At day 6 of culture, nitrovin was added at a final concentration of 1 μM, 5 μM, or 20 μM. At day 18 of culture, fluorescence intensity of GFP was determined.

[4] = test system: CMK 6.4 cynomolgus monkey ES cells; assay: Comparison of nitrovin and cytokines in cardiac muscle cell differentiation of monkey ES cells; conditions: nitrovin 5 μM day 6-14; cytokines (bFGF, BMP4, VEGF, DKK1, Activin A) day 1-14; read at day 18
From the text: Nitrovin and a mixture of cytokines (bFGF, BMP4, VEGF, DKK1, and Activin A) known as a promoter of cardiac muscle cell differentiation were compared as to increase of GFP fluorescence intensity, number of beating colonies of cardiac muscle cells, and expression of Troponin T, a marker of cardiac muscle cell differentiation.
As described in Example 1, a vector expressing green fluorescent protein (GFP) was introduced into monkey ES cell line (CMK 6.4 cynomolgus monkey ES cells). The culture medium was the same as described in Example 1. The monkey ES cells were seeded on 6-well culture plates and nitrovin (final concentration: 5 μM) or a mixture of cytokines (bFGF, BMP4, VEGF, DKK1, and Activin A) (final concentration: 5 ng/ml, 10 ng/ml, 10 ng/ml, 150 ng/ml, and 3 ng/ml, respectively) was added during day 6-14 of culture (nitrovin) or day 1-14 of culture (cytokines).

[5] = nitrovin 1, 5 or 20 μM added at day 6, read at day 18, maximal increase vs control (DMSO)

SMILES: N=C(N)NN=C(/C=C/c1ccc([N+](=O)[O-])o1)/C=C/c1ccc([N+](=O)[O-])o1 [nitrovin]
- GFP fluorescence intensity (GFP expression under α-MHC promoter) [1]: high
- most effective final concentration ([2]; among 1, 5 and 20 μM, GFP fluorescence intensity and beating colonies at day 18): 5 µM
- increase of GFP fluorescence intensity [2, 5]: about 5 times
- increase of number of beating colonies of cardiac muscle cells [2, 5]: about 10 times
- GFP fluorescence intensity [3]: increase of GFP fluorescence intensity induced by nitrovin was also observed
- GFP fluorescence intensity compared to the mixture of cytokines [4]: highly effective
- expression level of Troponin T compared to the mixture of cytokines [4]: highly effective
- number of beating colonies compared to the mixture of cytokines [4]: highly effective

Source: patent US20120244619A1, “COMPOSITION FOR PROMOTING DIFFERENTIATION OF PLURIPOTENT STEM CELLS INTO CARDIAC MUSCLE CELLS WHICH COMPRISES NITROVIN” (KYOTO UNIVERSITY, priority 2009, published 2012)
